Values of other authors, collected in patent US20250057162A1, “FUNGICIDAL COMPOSITIONS” (SYNGENTA CROP PROTECTION AG, priority 2021, published 2025).

Test system: Mycosphaerella graminicola (Septoria tritici)

## COc1ccnc(C(=O)N[C@@H](C)C(=O)O[C@@H](C)C(c2ccc(F)cc2)c2ccc(F)cc2)c1OC(C)=O [Florylpicoxamid, (1S)-2,2-bis(4-fluorophenyl)-1-methylethyl N-{[3-(acetyloxy)-4-methoxy-2-pyridyl]carbonyl}-L-alaninate]
  control of wheat leaf blotch disease (in words): particularly effective
